pIC50: −log10 of the molar value.
Molecular target: T1, human CRHR2-alpha (Homo sapiens, UniProt Q13324)
T1 sequence (Q13324 1-411): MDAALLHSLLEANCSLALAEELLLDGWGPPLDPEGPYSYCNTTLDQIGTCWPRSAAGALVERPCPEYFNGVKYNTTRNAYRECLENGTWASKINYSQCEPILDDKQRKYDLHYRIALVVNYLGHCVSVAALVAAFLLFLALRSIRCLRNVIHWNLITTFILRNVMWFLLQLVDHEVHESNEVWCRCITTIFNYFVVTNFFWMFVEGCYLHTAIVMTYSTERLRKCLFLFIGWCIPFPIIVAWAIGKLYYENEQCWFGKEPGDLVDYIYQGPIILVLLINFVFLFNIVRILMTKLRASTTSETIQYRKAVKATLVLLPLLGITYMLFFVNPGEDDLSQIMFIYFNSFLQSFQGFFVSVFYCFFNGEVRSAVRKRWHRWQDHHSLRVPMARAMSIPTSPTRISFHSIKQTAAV
Experiment: cAMP functional assay for human CRHR2 (LANCE Ultra cAMP, TR-FRET)
Format: cell-based
Conditions: CHO-K1 cells expressing human CRHR2-alpha, agonist human urocortin2 at EC80, cAMP; read-out: IC50 against CRHR2
Procedure, shortened: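 CHO-K1 cells stably expressing each receptor, serum-starved and cryopreserved, were preincubated with compound 30 min at 25° C in HBSS buffer with 0.5 mM IBMX, pH 7.4, then stimulated 30 min with EC80 agonist (urocortin2 for CRHR2, CRF for CRHR1). cAMP read by TR-FRET; IC50 from percent-inhibition curves.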

Structure (SMILES)	pIC50
O=C(N[C@H]1CC[C@H](Cn2c(=O)n(-c3cncc4ccccc34)c3ccccc32)CC1)c1cc(Cl)cnc1C(F)F [Example 418, 5-chloro-2-(difluoromethyl)-N-((1r,4r)-4-((3-(isoquinolin-4-yl)-2-oxo-2,3-dihydro-1H-benzo [d]imidazol-1-yl)methyl)cyclo-hexyl)nicotinamide]	> 6.52
O=C(N[C@H]1CC[C@H](Cn2c(=O)n(-c3ccc(OCCF)nc3)c3ccccc32)CC1)c1cc(Cl)cnc1C(F)F [Example 432, 5-chloro-2-(difluoromethyl)-N-((1r,4r)-4-((3-(6-(2-fluoroethoxy)pyridin-3-yl)-2-oxo-2,3-dihydro-1H-benzo[d]imidazol-1-yl)methyl)cyclohexyl)nicotinamide]	> 6.52
O=C(N[C@H]1CC[C@H](Cn2c(=O)n(-c3ccc(NCC(F)F)nc3)c3ccccc32)CC1)c1cc(Cl)cnc1C(F)F [Example 464, 5-chloro-N-((1r,4r)-4-((3-(6-((2,2-difluoroethyl)amino)pyridin-3-yl)-2-oxo-2,3-dihydro-1H-benzo[d]imidazol-1-yl)methyl)cyclohexyl)-2-(difluoromethyl)nicotinamide]	> 6.52
Cc1ncc(Cl)cc1C(=O)N[C@H]1CC[C@H](Cn2c(=O)n(-c3ccnc(N4CCN(C)C4=O)c3)c3ccccc32)CC1 [Example 690, 5-chloro-2-methyl-N-((1r,4r)-4-((3-(2-(3-methyl-2-oxoimi-dazolidin-1-yl)pyridin-4-yl)-2-oxo-2,3-dihydro-1H-benzo [d]imidazol-1-yl)methyl)cyclo-hexyl)nicotinamide]	> 6.52
COc1ccc(Cl)c(-n2c(=O)n(C[C@H]3CC[C@H](NC(=O)c4cc(Cl)cnc4C(F)F)CC3)c3ccncc32)c1 [Example 693, 5-chloro-N-((1r,4r)-4-((3-(2-chloro-5-methoxyphenyl)-2-oxo-2,3-dihydro-1H-imidazo [4,5-c]pyridin-1-yl)methyl)cyclohexyl)-2-(difluoromethyl) nicotinamide]	> 6.52
O=C(N[C@H]1CC[C@H](Cn2c(=O)n(-c3cnc4[nH]ccc4c3)c3ccccc32)CC1)c1cc(Cl)cnc1C(F)(F)F [Example 424, 5-chloro-N-((1r,4r)-4-((2-oxo-3-(1H-pyrrolo[2,3-b]pyridin-5-yl)-2,3-dihydro-1H-benzo [d]imidazol-1-yl)methyl)cyclo-hexyl)-2-(trifluoromethyl) nicotinamide]	> 6.52
Cc1noc2cc(-n3c(=O)n(C[C@H]4CC[C@H](NC(=O)c5cc(Cl)cnc5C(F)F)CC4)c4cccnc43)ccc12 [Example 583, 5-chloro-2-(difluoromethyl)-N-((1r,4r)-4-((3-(3-methyl-benzo[d]isoxazol-6-yl)-2-oxo-2,3-dihydro-1H-imidazo [4,5-b]pyridin-1-yl)methyl)cyclohexyl)nicotinamide]	> 6.52
CNC(=O)c1ccc(-n2c(=O)n(C[C@H]3CC[C@H](NC(=O)c4cc(Cl)cnc4C(F)F)CC3)c3ccccc32)cn1 [Example 325, 5-(3-(((1r,4r)-4-(5-chloro-2-(difluoromethyl)nicotina-mido)cyclohexyl)methyl)-2-oxo-2,3-dihydro-1H-benzo [d]imidazol-1-yl)-N-methylpicolinamide]	> 6.52
N#Cc1ccncc1-n1c(=O)n(C[C@H]2CC[C@H](NC(=O)c3cc(Cl)cnc3C(F)F)CC2)c2ccccc21 [Example 373, 5-chloro-N-((1r,4r)-4-((3-(4-cyanopyridin-3-yl)-2-oxo-2,3-dihydro-1H-benzo[d]imidazol-1-yl)methyl)cyclohexyl)-2-(difluoromethyl)nicotinamide]	> 6.52
Cc1ncc(Cl)cc1C(=O)N[C@H]1CC[C@H](Cn2c(=O)n(-c3ccc4c(c3)CCC4)c3ncccc32)CC1 [Example 189, 5-chloro-N-((1r,4r)-4-((3-(2,3-dihydro-1H-inden-5-yl)-2-oxo-2,3-dihydro-1H-imidazo[4,5-b]pyridin-1-yl)methyl)cyclohexyl)-2-methylnicotinamide]	> 6.52
COc1ccc(C(=O)Cn2c(=O)n(C[C@H]3CC[C@H](NC(=O)c4cc(Cl)cnc4C)CC3)c3ccccc32)cc1 [Example 9, 5-chloro-N-((1r,4r)-4-((3-(2-(4-methoxyphenyl)-2-oxoethyl)-2-oxo-2,3-dihydro-1H-benzo[d]imidazol-1-yl)methy)cyclohexyl)-2-methylnicotinamide]	> 6.52
N#Cc1ncccc1-n1c(=O)n(C[C@H]2CC[C@H](NC(=O)c3cc(Cl)cnc3C(F)F)CC2)c2ccccc21 [Example 368, 5-chloro-N-((1r,4r)-4-((3-(2-cyanopyridin-3-yl)-2-oxo-2,3-dihydro-1H-benzo[d]imidazol-1-yl)methyl)cyclo-hexyl)-2-(difluoromethyl) nicotinamide]	> 6.52
CNc1ccc(-n2c(=O)n(C[C@H]3CC[C@H](NC(=O)c4cc(Cl)cnc4C)CC3)c3ccccc32)c(C)n1 [Example 150, 5-chloro-2-methyl-N-((1r,4r)-4-((3-(2-methyl-6-(methylamino)pyridin-3-yl)-2-oxo-2,3-dihydro-1H-benzo[d]imidazol-1-yl)methyl)cyclohexyl)nicotinamide]	> 6.52
Cc1ncc(Cl)cc1C(=O)N[C@H]1CC[C@H](Cn2c(=O)n(-c3ccccc3C#N)c3ccccc32)CC1 [Example 219, 5-chloro-N-((1r,4r)-4-((3-(2-cyanophenyl)-2-oxo-2,3-dihydro-1H-benzo[d]imidazol-1-yl)methyl)cyclohexyl)-2-methylnicotinamide]	> 6.52
Cc1ncc(Cl)cc1C(=O)N[C@H]1CC[C@H](Cn2c(=O)n(Cc3ccccc3)c3ncccc32)CC1 [Example 448, N-((1r,4r)-4-((3-benzyl-2-oxo-2,3-dihydro-1H-imidazo [4,5-b]pyridin-1-yl)methyl)cyclohexyl)-5-chloro-2-methylnicotinamide]	> 6.52
O=C(N[C@H]1CC[C@H](Cn2c(=O)n(-c3ccccc3Cl)c3ncccc32)CC1)c1cc(Cl)cnc1C(F)F [Example 366, 5-chloro-N-((1r,4r)-4-((3-(2-chlorophenyl)-2-oxo-2,3-dihydro-1H-imidazo[4,5-b]pyridin-1-yl)methyl)cyclo-hexyl)-2-(difluoromethyl) nicotinamide]	> 6.52
Cc1ncc(Cl)cc1C(=O)N[C@H]1CC[C@H](Cn2c(=O)n(-c3ccc4c(N)n[nH]c4c3)c3ccccc32)CC1 [Example 197, N-((1r,4r)-4-((3-(3-amino-1H-indazol-6-yl)-2-oxo-2,3-dihydro-1H-benzo[d]imidazol-1-yl)methyl)cyclohexyl)-5-chloro-2-methylnicotinamide]	> 6.52
CNc1ccc(-n2c(=O)n(C[C@H]3CC[C@H](NC(=O)c4cc(Cl)cnc4C(F)F)CC3)c3ccccc32)cn1 [Example 380, 5-chloro-2-(difluoromethyl)-N-((1r,4r)-4-((3-(6-(methyl-amino)pyridin-3-yl)-2-oxo-2,3-dihydro-1H-benzo[d]imidazol-1-yl)methyl)cyclo-hexyl)nicotinamide]	> 6.52
COC1CCN(c2ccc(-n3c(=O)n(C[C@H]4CC[C@H](NC(=O)c5cc(Cl)cnc5C)CC4)c4ccccc43)cn2)CC1 [Example 126, 5-chloro-N-((1r,4r)-4-((3-(6-(4-methoxypiperidin-1-yl)pyridin-3-yl)-2-oxo-2,3-di-hydro-1H-benzo[d]imidazol-1-yl)methyl)cyclohexyl)-2-methylnicotinamide]	> 6.52
Cc1ncc(Cl)cc1C(=O)N[C@H]1CC[C@H](Cn2c(=O)n(-c3ccc(N4CCN(C)CC4)nc3)c3ccccc32)CC1 [Example 55, 5-chloro-2-methyl-N-((1r,4r)-4-((3-(6-(4-methylpiperazin-1-yl)pyridin-3-yl)-2-oxo-2,3-dihydro-1H-benzo[d]imidazol-1-yl)methyl)cyclohexyl)nicotinamide]	> 6.52
CNC(=O)c1cc2cc(-n3c(=O)n(C[C@H]4CC[C@H](NC(=O)c5cc(Cl)cnc5C)CC4)c4ccccc43)ccc2n1C [Example 404, 5-(3-(((1r,4r)-4-(5-chloro-2-methylnicotinamido)cyclo-hexyl)methyl)-2-oxo-2,3-dihydro-1H-benzo[d]imidazol-1-yl)-N,1-dimethyl-1H-indole-2-carboxamide]	> 6.52
Cc1ncc(Cl)cc1C(=O)N[C@H]1CC[C@H](Cn2c(=O)n(-c3ccc(NC(C)C)nc3)c3ccccc32)CC1 [Example 460, 5-chloro-N-((1r,4r)-4-((3-(6-(isopropylamino)pyridin-3-yl)-2-oxo-2,3-dihydro-1H-benzo[d]imidazol-1-yl)methyl)cyclohexyl)-2-methylnicotinamide]	> 6.52
O=C(N[C@H]1CC[C@H](Cn2c(=O)n(Cc3cscn3)c3ccccc32)CC1)c1cc(Cl)cnc1C(F)(F)F [Example 314, 5-chloro-N-((1r,4r)-4-((2-oxo-3-(thiazol-4-ylmethyl)-2,3-dihydro-1H-benzo[d]imidazol-1-yl)methyl)cyclo-hexyl)-2-(trifluoromethyl) nicotinamide]	> 6.52
Cc1ncc(Cl)cc1C(=O)N[C@H]1CC[C@H](Cn2c(=O)n(-c3ccnc(-c4cnn(C)c4)c3)c3ccccc32)CC1 [Example 680, 5-chloro-2-methyl-N-((1r,4r)-4-((3-(2-(1-methyl-1H-pyrazol-4-yl)pyridin-4-yl)-2-oxo-2,3-dihydro-1H-benzo[d]imidazol-1-yl)methyl)cyclohexyl) nicotinamide]	> 6.52

From patent US11802120B2, “Fused cyclic urea derivatives as CRHR2 antagonist” (RaQualia Pharma Inc., priority 2018, dated 2023)
